Test systems include M14 melanoma; MDA-MB-231 breast; HOP-62 NSCLC; A549 NSCLC; MDA-N; EKVX NSCLC; HCT-15 colon; UACC-257 melanoma; KM12 colon; PC-3 prostate.
Holding throughout (experiment): NCI-60 cell line screen, 48 h

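Interpolation was linear, between the two tested concentrations surrounding the appropriate level; five concentrations were tested over 48 hours in 96-well plates. TGI: total growth inhibition.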

Consider `CCOc1ccc(N/C(=C(/C(Cl)=C(/Cl)N(CC)CC)[N+](=O)[O-])n2nnc3ccccc32)cc1`, for which the TGI in the test on M14 melanoma is 79 µM; in the test on MDA-MB-231 breast, 25.2 µM; with HOP-62 NSCLC, more than 100 µM; with A549 NSCLC it was more than 100 µM; in the test on MDA-N, 70.4 µM; in the test with EKVX NSCLC, 69.6 µM. Moreover, the TGI with HCT-15 colon is 38.4 µM; in the test with UACC-257 melanoma, more than 100 µM; in the test on KM12 colon, 26.3 µM; in the test on PC-3 prostate, 41.9 µM.

With `Cc1ccc(/C(O)=C/c2nc3ccccc3sc2=O)c(C)c1`, the TGI in the test on M14 melanoma was more than 100 µM; in the test on MDA-MB-231 breast it was more than 100 µM; in the test with HOP-62 NSCLC it was 97.3 µM; in the test on A549 NSCLC, more than 100 µM; in the test on MDA-N it was more than 100 µM; with EKVX NSCLC, more than 100 µM. For the same compound, the TGI in the test on HCT-15 colon, in the test with UACC-257 melanoma, with KM12 colon and with PC-3 prostate was more than 100 µM in each case.

Consider `CC(NC(=O)C(NC(=O)CNC(=O)OC(C)(C)C)C(C)C)C(=O)Oc1c(Cl)c(Cl)c(Cl)c(Cl)c1Cl` (stereo not given), for which the TGI is 39.5 µM in the test on M14 melanoma; 42 µM with MDA-MB-231 breast; 35.7 µM in the test with HOP-62 NSCLC; 57.5 µM in the test on A549 NSCLC; more than 100 µM in the test on MDA-N; 83.8 µM in the test on EKVX NSCLC. The TGI with HCT-15 colon is 33.2 µM; with UACC-257 melanoma it was 44.7 µM; in the test on KM12 colon, 30.4 µM; in the test with PC-3 prostate, 32.1 µM.

In the case of `Cc1ccc(OCC2OC(n3cnc4nc(N)nc(Cl)c43)CC2Oc2ccc(C)cc2)cc1` (stereo not given), the TGI is 41.2 µM with M14 melanoma; more than 100 µM with MDA-MB-231 breast; 52.6 µM with HOP-62 NSCLC; 58.3 µM in the test on A549 NSCLC; 39.5 µM in the test on MDA-N; 69.4 µM in the test on EKVX NSCLC. Also, the TGI in the test on HCT-15 colon is 59.3 µM; with UACC-257 melanoma, more than 100 µM; in the test with KM12 colon, 44 µM; with PC-3 prostate it was 44.6 µM.

Take `Cc1ccc([S@](=O)c2occc2C=O)cc1`: the TGI in the test on M14 melanoma stood at 20.7 µM; in the test on MDA-MB-231 breast, 24.2 µM; in the test with HOP-62 NSCLC it was 35.2 µM; in the test with A549 NSCLC it was 46.5 µM; in the test on MDA-N, 15.1 µM; in the test with EKVX NSCLC it was 43.6 µM. In addition, the TGI with HCT-15 colon was determined as 9.84 µM; in the test with UACC-257 melanoma, 26.3 µM; in the test with KM12 colon it was 31.5 µM; with PC-3 prostate it was 10.4 µM.

Consider `CCNC(=S)N=Nc1c(O)[nH]c2ccc([N+](=O)[O-])cc12`, for which the TGI in the test on M14 melanoma, with MDA-MB-231 breast, with HOP-62 NSCLC, with A549 NSCLC, in the test with MDA-N and in the test on EKVX NSCLC was more than 100 µM each time. The TGI in the test on HCT-15 colon, with UACC-257 melanoma, in the test with KM12 colon and in the test on PC-3 prostate was more than 100 µM each time.

Take `O=[N+]([O-])c1ccc2sc(C=Nc3cnccn3)cc2c1`: the TGI in the test on M14 melanoma, in the test on MDA-MB-231 breast, in the test on HOP-62 NSCLC, in the test with A549 NSCLC, in the test with MDA-N and in the test with EKVX NSCLC was more than 100 µM in each case. Also, the TGI in the test on HCT-15 colon, in the test with UACC-257 melanoma, in the test with KM12 colon and in the test on PC-3 prostate was more than 100 µM throughout.

Turning to `COC(OC)[C@@H]1OC[C@H](n2cnc3c(N)ncnc32)[C@H]1O`, the TGI in the test on M14 melanoma, in the test on MDA-MB-231 breast, in the test on HOP-62 NSCLC, in the test with A549 NSCLC, in the test on MDA-N and in the test with EKVX NSCLC was more than 100 µM throughout. The TGI in the test on HCT-15 colon, in the test on UACC-257 melanoma, in the test with KM12 colon and with PC-3 prostate was more than 100 µM each time.

`O=C1NC(Nc2ccccc2)=NC(C(F)(F)F)(C(F)(F)F)N1`: the TGI in the test on M14 melanoma is 83.5 µM; with MDA-MB-231 breast it was more than 100 µM; with HOP-62 NSCLC, more than 100 µM; with A549 NSCLC, more than 100 µM; in the test on MDA-N, more than 100 µM; in the test with EKVX NSCLC, more than 100 µM. The TGI in the test on HCT-15 colon, with UACC-257 melanoma, in the test on KM12 colon and in the test on PC-3 prostate was more than 100 µM in each case.

For the compound `C=C[C@@H](C)[C@H](NS(=O)(=O)c1ccc(C)cc1)C(=O)OCC`, the TGI in the test with M14 melanoma is more than 100 µM; in the test with MDA-MB-231 breast, more than 100 µM; in the test on HOP-62 NSCLC it was more than 100 µM; in the test with A549 NSCLC it was more than 100 µM; with MDA-N, 83.6 µM; in the test with EKVX NSCLC, more than 100 µM. Further, the TGI is more than 100 µM with HCT-15 colon, 71.5 µM in the test on UACC-257 melanoma, more than 100 µM in the test on KM12 colon and more than 100 µM with PC-3 prostate.

Source of the values: PubChem BioAssay (NCI).
